According to US20060052390A1, “Treatment of multiple myeloma by p38 MAP kinase and proteasome inhibition” (Scios, Inc., priority 2003, published 2006):
“Also recorded” adds a separate entry of the source. Structures can show the parent of a compound that is named as a salt. Residues, ends and D or L forms follow the SMILES beside them. *: point of attachment. Cbz = O=C(OCc1ccccc1)*

Columns and labels:
MM cells [1] = assay: treatment of a patient with multiple myeloma; type: in vivo; settings: in combination with VELCADE
Source text: A patient is diagnosed with multiple myeloma. The patient presents with MM cells with rapid growth rates, which displace osteoblasts, and disrupting the balance of bone creation and destruction. A number of MM-related cytokines, such as IL-6, VEGF, IL-11, and PGE-2 are detectable. […] MM cell growth is inhibited and MM-related cytokine product is reduced. A patient diagnosed with multiple myeloma receives VELCADE and responds well until VELCADE-resistant MM cells develop. Drug resistant MM cells with rapid growth rates begin to populate the bone marrow of the subject. Elevated levels of MM-related cytokines, such as IL-6, VEGF, IL-11, and PGE-2 are again detectable.

MM/BMSC co-cultures = assay: MM cell proliferation in MM/BMSC co-cultures with MG-132; type: cell-based; settings: MM cells co-cultured with BMSC; FIG. 7
Description: Thus, proteasome inhibitors such as VELCADE might be limiting their own ability to induce apoptosis of MM cells by inducing growth-supporting activity in the microenvironment. Inhibition of the p38 response by BMSC would counteract this support.
For these studies, U266, IM9 and RPMI8226 cells are incubated with DMSO (−) or with 0.5 μM of a disclosed p38 MAPK inhibitor (+) for 1 hour and cell lysates are immunoblotted with antibodies to phospho-p38 and p38 MAP kinase by Western analysis. U266B1 and RPMI8226 are MM cell lines, and IM9 is an Epstein Barr Virus (EBV)-transformed B cell line with characteristics of MM cells. All can be obtained from American Type Culture Collection (ATCC; Rockville, Md.). All cell lines are maintained in RPMI-1640 (ATCC), supplemented with 10% fetal bovine serum (Hyclone; Logan, Utah), 100 units/ml of penicillin, 100 μg/ml streptomycin and 2 mM L-glutamine (Life Technologies, Inc.; Grand Island, N.Y.). BMSC (Cambrex) are maintained in Myelocult H5100 supplemented with 10^−6 M hydrocortisone (Stem Cell Technologies; Vancouver, B.C.), 100 units/ml of penicillin and 100 μg/ml streptomycin. MM cells are usually seeded at a density of 3×10^4 cells/well in 96-well culture plates. For MM co-cultures, BMSC are first seeded at 1.2×10^4 cells/well in a 96-well plate in Myelocult/hydrocortisone medium for 24 hours prior to the addition of MM cells.

MM cells [2] = assay: MM cell viability and proliferation with proteasome inhibitor MG-132; type: cell-based; settings: for proliferation: MG-132 alone
HSP-27 = assay: immunodetection of phospho-HSP-27 in MM cells and BMSC; type: cell-based
Description: (§1) Total cell lysates are immunoprecipitated with anti-MAPKAPK-2 antibody and subjected to in vitro kinase assays using purified GST-Hsp27 as substrate. To examine Hsp27 phosphorylation in MM and transformed B cells, U266, IM9 and RPMI8226 cells are incubated either with DMSO or with 0.5 μM of a p38 MAPK inhibitor and cell lysates are immunoblotted with antibodies to phospho-Hsp27 (Ser 82) and Hsp27.
U266, IM9 and RPMI8226 cells are incubated with 0.5 μM of the p38 MAPK inhibitor for 1hour and Hsp27 proteins are immunoprecipitated with agarose-conjugated Hsp27 antibody, followed by immunoblotting with anti-phospho Hsp27 (Ser 78) antibody.
(§2) Specific antibodies to p38 MAP kinase are from Santa Cruz Biotechnology (Santa Cruz, Calif.). Antibodies to phospho-p38 MAP kinase (T180/Y182) and phospho-Hsp27 (S82) are from Cell Signaling (Beverly, Mass.). Antibodies to Hsp27 and phospho-Hsp27 (S78) are from Upstate Biotechnology (Lake Placid, N.Y.). Anti-MAPKAPK-2 is from StressGen (San Diego, Calif.) while anti-GAPDH is from Biogenesis Ltd. (Poole, UK).

RANKL mRNA = RANKL mRNA induction in BMSC and MM/BMSC cultures; type: cell-based; settings: 100 nM
Description: In addition, 100 nM of these p38 MAPK inhibitors blocks the weaker induction of RANKL by IL-6 in BMSC.

MAPKAPK-2 = MAPKAPK-2 in vitro kinase assay on immunoprecipitates of cell lysates, GST-Hsp27 substrate; type: cell-based; settings: 0.5 μM
Description: as §1

Hsp27 = assay: Western blot of heat shock protein levels in MM cells; type: cell-based
Description: as §1
Cells are collected at various times and lysates are examined by Western Blot analysis using specific antibodies against particular proteins, with GAPDH as loading control. Specific antibodies to Hsp70 and Hsp90 are from Santa Cruz Biotechnology (Santa Cruz, Calif.).
The Western blots are examined for the total Hsp27 and phospho-Hsp27 levels at three different exposure times. […] This is consistent with observations made previously in MM.1S cells. […] This phenomenon appears to be unique to Hsp27 since a decrease in the levels of Hsp70 or Hsp90 in these same samples is not observed. […] The decrease of phospho-Hsp27 levels in the PS-341-treated cells is commensurate with the decrease of total Hsp27 protein in these cells.

p38α MAPK = molecular target: T1, p38α MAPK (Homo sapiens, UniProt Q16539); assay: p38α phospho-specific immunodetection in MM cells and BMSC; type: cell-based; settings: BMSC treated with MG-132
T1 construct: endogenous in cells; host or cells: U266, IM9, RPMI8226 cells; BMSC
T1 sequence (Q16539 whole entry): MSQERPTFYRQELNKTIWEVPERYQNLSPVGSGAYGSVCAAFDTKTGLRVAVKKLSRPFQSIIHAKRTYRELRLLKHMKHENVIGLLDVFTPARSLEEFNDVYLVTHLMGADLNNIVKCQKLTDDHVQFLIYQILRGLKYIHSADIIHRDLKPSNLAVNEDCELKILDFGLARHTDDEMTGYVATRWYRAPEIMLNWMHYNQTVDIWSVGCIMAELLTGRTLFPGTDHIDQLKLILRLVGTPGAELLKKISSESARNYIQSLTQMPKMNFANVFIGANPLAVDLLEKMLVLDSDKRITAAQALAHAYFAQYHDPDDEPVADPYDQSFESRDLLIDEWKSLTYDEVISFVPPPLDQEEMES
Source text: as §2

[3] = tested on: calpains, cathepsins, and other lysosomal enzymes; settings: cited from earlier work
[4] = MM patients; cited from earlier work
RPMI8226 cells = assay: apoptosis by Annexin V-PE flow cytometry in RPMI8226 cells; type: cell-based
Description: Cells are collected at indicated times and assayed.
(§3) Detection of apoptotic cells was performed by staining with Annexin V-Phycoerythrin (PE) and 7-Amino Actinomycin D (7-AAD) (BD Pharmigen; San Diego, Calif.). Samples are analyzed by dual color flow cytometry using a FACScan laser flow cytometer and Cell Quest software (Becton Dickinson; San Jose, Calif.). 7-AAD is a nucleic acid dye that is used to exclude nonviable cells in flow cytometric assays. Cells that are Annexin V-PE positive and 7-AAD negative are considered early apoptotic. Antibodies to caspase-3, -6, -7, -8, -9, and PARP are from Cell Signaling (Beverly, Mass.).

caspases and PARP = assay: Western blot of caspase activation and PARP cleavage in MM cells; type: cell-based; settings: RPMI8226; increasing duration of PS-341 treatment
Description: as §3
Protein lysates from RPMI8226 cells obtained at these time points are collected in parallel and examined for Hsp27 levels, caspase activation and PARP cleavage by Western blot analysis.

[5] = RPMI8226, 10 nM PS-341, 8 hours

C[C@@H]1CN(Cc2ccc(F)cc2)[C@@H](C)CN1C(=O)c1cc2c(C(=O)C(=O)N(C)C)cn(C)c2cc1Cl [Compound 57 hydrochloride salt]
sensitivity of the MM cells to VELCADE (MM cells [1]; patient with VELCADE-resistant MM): restores the sensitivity
MM-related cytokine product (MM cells [1]; patient): reduced
MM cell growth (MM cells [1]; patient, listed as Compound 57 in the hydrochloric salt form): again inhibited

C[C@@H]1CN(Cc2ccc(F)cc2)[C@@H](C)CN1C(=O)c1cc2c(C(=O)C(=O)N(C)C)cn(C)c2cc1Cl [Compound 57]
effect on the ability of MG-132 to reduce MM cell proliferation (MM/BMSC co-cultures): enhanced the ability of MG-132 to reduce MM cell proliferation; also recorded: enhances the anti-proliferative effect
IM9 proliferation (MM cells [2]; MG-132 in the presence of the p38 MAPK inhibitor, related to the dose of both): reduced or entirely blocked
effect on the reduction of MM cell viability and proliferation caused by MG-132 (MM cells [2]; co-exposure with MG-132, MM cells, FIG. 6): enhanced the reduction of MM cell viability and proliferation; also recorded: enhances the anti-proliferative effect
phosphorylation of HSP-27 (HSP-27; BMSC): blocked phosphorylation of HSP-27 completely
phosphorylation of HSP-27 (HSP-27; MM cells): blocked phosphorylation of HSP-27 completely
Hsp27 phosphorylation (HSP-27; U266, IM9 and RPMI8226, 0.5 μM, cell lysates or immunoprecipitation): inhibits
Hsp27 phosphorylation (HSP-27; both drugs (PS-341 and p38 MAPK inhibitor), all time points): complete inhibition
induction of RANKL by IL-6 (RANKL mRNA; BMSC): blocks
induction of RANKL mRNA by TGFβ and IL-1 (RANKL mRNA; BMSC and MM/BMSC cultures, FIG. 5): blocked this induction
basal expression of RANKL mRNA (RANKL mRNA; FIG. 5): blocked
activity of downstream substrate MAPKAPK-2 (MAPKAPK-2): suppresses
total Hsp27 (Hsp27; 0.5 μM with 10 nM PS-341, 12 and 16 hours, RPMI8226 and IM9 cells): enhanced reduction
total Hsp27 levels (Hsp27; inhibitor alone, even after prolonged incubation): does not affect

CC(C)C[C@@H](C=O)NC(=O)[C@H](CC(C)C)NC(=O)[C@H](CC(C)C)NC(=O)OCc1ccccc1 [MG-132, Carbobenzoxy-L-Leucyl-L-Leucyl-L-Leucinal, reference compound] (Cbz-Leu-Leu-Leu-aldehyde)
activation of p38 (p38α MAPK): resulted in activation of p38
proliferation (MM cells [2]; HS Sultan MM cells): block completely
sensitivity of proliferation to MG-132 alone (MM cells [2]; IM9 MM cells): not sensitive
proliferation (MM cells [2]; U266 MM cells): block completely
concentrations with activity against calpains, cathepsins and other lysosomal enzymes, above those used in the disclosed experiments [3]: ≥ 10 -fold

CC(C)C[C@H](NC(=O)[C@H](Cc1ccccc1)NC(=O)c1cnccn1)B(O)O [PS-341]
clinically observed circulating concentration [4]: 40 to 100 nM
apoptotic cells (RPMI8226 cells; 10 nM PS-341, 8 hours): early apoptotic cells are apparent
apoptotic cells (RPMI8226 cells; 10 nM PS-341, 12 hours): about half the cells
apoptotic cells (RPMI8226 cells; 10 nM PS-341, 16 hours): most
PARP cleavage (caspases and PARP): proportional increase
activation or cleavage of procaspases-8, -9, -3, -6, and -7 (caspases and PARP): successively increasing activation or cleavage
Hsp27 protein levels (Hsp27; RPMI8226, 10 nM PS-341, 12 and 16 hours): reduced
Hsp27 expression (Hsp27; [5]): induced
Hsp70 expression (Hsp27; [5]): induced
decrease in the levels of Hsp70 or Hsp90 (Hsp27; RPMI8226, 10 nM PS-341, same samples): not observed
